Experimental findings from patent US20120230991A1, “METHODS AND COMPOUNDS FOR ENHANCING ANTI-CANCER THERAPY” (priority 2008, published 2012) are described below.

pIC50: −log10 of the molar value.

Assay [1] relates to 697 Human B-ALL Cell Lines. Description: MTT assay, chemosensitivity of 697 cells (wild type, shControl, Mer knockdown), 48 hours. The format is cell-based. Here is the method: Inhibition of Mer expression results in increased chemosensitivity in 697 cells. […] IC50 values were determined by non-linear regression of data from at least three independent experiments performed in triplicate, as shown in Table 1.
In general terms: Tetrazolium dyes change colour on reduction, which living cells bring about.

In the next assay the test system is A172 glioblastoma cells. Description: MTT assay, chemosensitivity of A172 control and knockdown cells. The assay is classed as cell-based. As to the method:
(§1) G12 control (shControl) and knockdown cells (shMer1 and shMer4; shAxl8 and shAxl9) were plated in 96-well plates at concentrations determined to allow linear growth over 3 days: A) cells were treated with varying concentrations of temozolomide and relative cell number was assessed 48 h after treatment by colorimetric assessment/MTT assay. Error bars denote experiments performed in triplicate. A172 control (shControl) and knockdown cells (shMer1A and shMer1B; shAxl8 and shAxl9) were plated in 96-well plates at concentrations determined to allow linear growth over 3 days: B) cells were treated with varying concentrations of carboplatin and relative cell number was assessed 48 h after treatment by colorimetric assessment/MTT assay. Error bars represent three independent experiments performed in triplicate.
(§2) Table 4 provides the IC50 with 95% CI for G12 and A172 control and Mer and Axl knockdown cells, in response to chemotherapy. In Table 4, ‘NR’ indicates an IC50 was never reached. ‘IND’ represents that that CI was indeterminate. The IC50 for each knockdown line was compared to the control line, and an ‘*’ represents that the comparison is statistically different while an ‘NS’ represents that there was no statistically significant difference because either the CI was indeterminate (as with the G12 shAxl9 line treated with carboplatin) or it overlapped with the shControl CI.

A further assay deals with G12 astrocytoma cells. Description: MTT assay, chemosensitivity of G12 astrocytoma control and knockdown cells. The format is cell-based. As to the method:
as §1, §2

A further assay concerns 697 cells. Description: Flow cytometry of apoptotic and dead cells (YO-PRO-1 / propidium iodide), 697 cells. The assay is classed as cell-based, human. The following applies: 697 shMer1A vs shControl, 48 hours. Here is the method: Apoptotic and dead cells were identified by flow cytometric analysis of cells stained with YO-PRO®-1 and propidium iodide: A) representative flow cytometry profiles; B) mean values and standard errors derived from 3 independent experiments.
Cultures of shControl or shMer1A 697 cells were exposed to 6-MP, VP-16, or medium only for 48 hours: A) Apoptotic and dead cells were identified by flow cytometric analysis of cells stained with YO-PRO®-1 and propidium iodide: Representative flow cytometry profiles; B) the percentages of apoptotic and dead cells are indicated in lower-right and upper-right quadrants, respectively. Mean values and standard errors derived from 3 independent experiments. Results were tested for significance using two-way ANOVA and Bonferroni posttests to compare shControl and shMer1A cells at equivalent drug concentrations.
(A flow cytometer gives signals particle by particle.)

Assay [2] deals with A549 Human NSCLC Cell Lines. Description: BrdU incorporation ELISA, relative cell proliferation of A549 cells, 48 hours. The format is cell-based. The following applies: for pIC50: BrdU assay; for sensitivity of A549 cells with inhibition of Mer expression: A549 Mer1-G8 knockdown, BrdU. As to the method:
The relative cell proliferation was determined via a BrdU incorporation ELISA. IC50 values were determined by non-linear regression of data from at least three independent experiments performed in triplicate (see Table 3).
For orientation: Dividing cells build labelled thymidine or BrdU into new DNA.

Assay [3] deals with A549 Human NSCLC Cell Lines. Description: Relative cell numbers of A549 cells (wild type, shControl, Axl/Mer knockdown) after 48 hours of drug. The conditions noted are these: for pIC50: 48 hours, relative cell number; for sensitivity of the shAxl9-D3 Axl knockdown clone: A549 shAxl9-D3, 48 hours. The assay is classed as cell-based.
Another assay relates to A549 cells. Description: Induction of apoptosis / cell death in A549 knockdown cells treated with doxorubicin. The assay is classed as cell-based, human.
Where [4] appears, read: 697 shMer1A (Mer knockdown) cells.
Where [5] appears, read: 697 shMer1B (Mer knockdown) cells.
[6] abbreviates: Homo sapiens, A549, 48 h, A549 Wild Type, 48 hours.
The mark [7] stands for this setting: Homo sapiens, A549, 48 h, A549 shAxl8-G5, 48 hours.
The mark [8] stands for this setting: Homo sapiens, A549, 48 h, A549 shAxl9-D3, 48 hours.
The mark [9] stands for this setting: Homo sapiens, A549, 48 h, A549 shControl, 48 hours.
[10] abbreviates: Homo sapiens, A549, 48 h, A549 shMer1-G8, 48 hours.
The mark [11] stands for this setting: Homo sapiens, A549, 48 h, A549 Wild Type.
Where [12] appears, read: Homo sapiens, A549, 48 h, A549 shAxl8-G5 (Axl knockdown).
The mark [13] stands for this setting: Homo sapiens, A549, 48 h, A549 shAxl9-D3 (Axl knockdown).
The mark [14] stands for this setting: Homo sapiens, A549, 48 h, A549 shControl.
[15] abbreviates: Homo sapiens, A549, 48 h, A549 shMer1-G8 (Mer knockdown).

As to `CC[C@]1(O)C[C@H]2CN(CCc3c([nH]c4ccccc34)[C@@](C(=O)OC)(c3cc4c(cc3OC)N(C=O)[C@H]3[C@@](O)(C(=O)OC)[C@H](OC(C)=O)[C@]5(CC)C=CCN6CC[C@]43[C@@H]65)C2)C1` [VCR, vincristine], the pIC50 in assay [1] (697 Wild Type cells) is 8.98; in assay [1] (697 shControl cells), 8.99; in assay [1] (setting [4]), 9.27; in assay [1] (setting [5]) it was 9.34; with A172 glioblastoma cells (Homo sapiens, A 172, A172 shAxl8, MTT) it was 9.17; with A172 glioblastoma cells (Homo sapiens, A 172, A172 shAxl9, MTT), 8.53. The pIC50 in the assay on A172 glioblastoma cells (Homo sapiens, A 172, A172 shControl, MTT) is 8.60; in the assay with A172 glioblastoma cells (Homo sapiens, A 172, A172 shMer1A, MTT) it was 8.90; with A172 glioblastoma cells (Homo sapiens, A 172, A172 shMer1B, MTT), 9.27; in the assay on G12 astrocytoma cells (G12 shAxl8, MTT), 9.51; with G12 astrocytoma cells (G12 shAxl9, MTT) it was 9.70; in the assay with G12 astrocytoma cells (G12 shControl, MTT), 8.79. Further, the pIC50 in the assay on G12 astrocytoma cells (G12 shMer1, MTT) was 9.13; in the assay on G12 astrocytoma cells (G12 shMer4, MTT), 9.66.
On to `Sc1ncnc2nc[nH]c12` [6-MP, 6-mercaptopurine], for which the “induction of apoptotic cell death with Mer knockdown” value in the assay with 697 cells is “increased induction of apoptotic cell death”. The pIC50 in assay [1] (697 Wild Type cells) is under 4.19; in assay [1] (697 shControl cells), under 4.19; in assay [1] (setting [4]), 5.54; in assay [1] (setting [5]), 5.49.
`N.N.[Cl][Pt][Cl]` [Cispl, cisplatin]: the pIC50 was 5.68 in assay [2] (A549 Wild Type, 48 hours); 5.57 in assay [2] (A549 shAxl8-G5, 48 hours); 5.64 in assay [2] (A549 shAxl9-D3, 48 hours); 5.77 in assay [2] (A549 shControl, 48 hours); 6.00 in assay [2] (A549 shMer1-G8, 48 hours); 5.19 in assay [3] (A549 Wild Type). The pIC50 in assay [3] (A549 shAxl8-G5 (Axl knockdown)) was 6.29; in assay [3] (A549 shAxl9-D3 (Axl knockdown)), 5.47; in assay [3] (A549 shControl), 5.07; in assay [3] (A549 shMer1-G8 (Mer knockdown)), 5.52. The “sensitivity of the shAxl9-D3 Axl knockdown clone” value in assay [3] is “more sensitive”.
As to `COc1cccc2c1C(=O)c1c(O)c3c(c(O)c1C2=O)C[C@@](O)(C(=O)CO)C[C@@H]3O[C@H]1C[C@H](N)[C@H](O)[C@H](C)O1` [DOXO, doxorubicin], the “sensitivity of A549 cells with inhibition of Mer expression” value in assay [2] (48 hours) is recorded as “increased sensitivity”. The pIC50 is 7.37 in assay [2] (setting [6]); 7.30 in assay [2] (setting [7]); 7.48 in assay [2] (setting [8]); 7.29 in assay [2] (setting [9]); 7.69 in assay [2] (setting [10]); 7.78 in assay [1] (697 Wild Type cells). The pIC50 in assay [1] (697 shControl cells) is 7.95; in assay [1] (setting [4]) it was 8.55; in assay [1] (setting [5]), 8.49; in assay [3] (setting [11]), 7.46; in assay [3] (setting [12]), 8.68; in assay [3] (setting [13]), 7.89. For the same compound, the pIC50 in assay [3] (setting [14]) was 7.16; in assay [3] (setting [15]), 7.15. In addition, the “induction of apoptosis with inhibition of Axl” value in the assay with A549 cells (A549 Axl knockdown vs shControl) is on record as “increased induction of apoptosis”. Besides, the “level of cell death in Mer knockdown cells” value in the assay on A549 cells (A549 Mer knockdown cells, treated vs untreated) was “did not increase the level of cell death”. The “sensitivity of the shAxl9-D3 Axl knockdown clone” value in assay [3] is reported as “more sensitive”.
As to `Cn1nnc2c(C(N)=O)ncn2c1=O` [Temozolomide, temozolomide], the pIC50 in the assay on A172 glioblastoma cells (Homo sapiens, A 172, 48 h, A172 shAxl8, 48 h, MTT) is 4.56; in the assay with A172 glioblastoma cells (Homo sapiens, A 172, 48 h, A172 shAxl9, 48 h, MTT), 4.41; in the assay on A172 glioblastoma cells (Homo sapiens, A 172, 48 h, A172 shControl, 48 h, MTT) it was 4.29; in the assay on A172 glioblastoma cells (Homo sapiens, A 172, 48 h, A172 shMer1A, 48 h, MTT), 4.67; with A172 glioblastoma cells (Homo sapiens, A 172, 48 h, A172 shMer1B, 48 h, MTT) it was 5.11; with G12 astrocytoma cells (48 h, G12 shAxl8, 48 h, MTT), 5.16. The pIC50 in the assay with G12 astrocytoma cells (48 h, G12 shAxl9, 48 h, MTT) was 5.74; in the assay with G12 astrocytoma cells (48 h, G12 shControl, MTT), 4.16; in the assay on G12 astrocytoma cells (48 h, G12 shMer1, 48 h, MTT) it was 4.74; in the assay with G12 astrocytoma cells (48 h, G12 shMer4, 48 h, MTT), 6.00.
As for `COc1cc([C@@H]2c3cc4c(cc3[C@@H](O[C@@H]3O[C@@H]5CO[C@@H](C)O[C@H]5[C@H](O)[C@H]3O)[C@H]3COC(=O)[C@H]23)OCO4)cc(OC)c1O` [VP-16, etoposide], the “induction of apoptotic cell death with Mer knockdown” value in the assay with 697 cells was “increased induction of apoptotic cell death”. In addition, in assay [2] (48 hours), the “sensitivity of A549 cells with inhibition of Mer expression” value was “increased sensitivity”. Also, the pIC50 was 6.14 in assay [2] (setting [6]); 5.85 in assay [2] (setting [7]); 6.23 in assay [2] (setting [8]); 6.04 in assay [2] (setting [9]); 6.43 in assay [2] (setting [10]); 6.74 in assay [1] (697 Wild Type cells). For the same compound, the negative logarithm of the IC50 (pIC50) in assay [1] (697 shControl cells) is 6.76; in assay [1] (setting [4]), 7.27; in assay [1] (setting [5]), 7.22; in assay [3] (setting [11]), 5.66; in assay [3] (setting [12]), 6.48; in assay [3] (setting [13]), 6.00. Also, the pIC50 was 5.48 in assay [3] (setting [14]) and 5.42 in assay [3] (setting [15]). Besides, in assay [3], the “sensitivity of the shAxl9-D3 Axl knockdown clone” value is reported as “more sensitive”.
As for `N.N.O=C([O-])C1(C(=O)[O-])CCC1.[Pt+2]` [Carbo, carboplatin], the “sensitivity of A549 cells with inhibition of Mer expression” value in assay [2] (48 hours) is given as “increased sensitivity”. In addition, the pIC50 in assay [2] (A549 Wild Type, 48 hours) is 4.70; in assay [2] (A549 shAxl8-G5, 48 hours), 4.77; in assay [2] (A549 shAxl9-D3, 48 hours) it was 4.82; in assay [2] (A549 shControl, 48 hours) it was 4.81; in assay [2] (A549 shMer1-G8, 48 hours), 5.14; with A172 glioblastoma cells (A172 shAxl8, 48 h, MTT), 7.46. Besides, the negative-log IC50 (pIC50) in the assay with A172 glioblastoma cells (A172 shAxl9, 48 h, MTT) was 7.12; in the assay on A172 glioblastoma cells (A172 shMer1A, 48 h, MTT) it was 6.09; with A172 glioblastoma cells (A172 shMer1B, 48 h, MTT), 6.68; in the assay on G12 astrocytoma cells (G12 shAxl8, 48 h, MTT) it was 6.55; in the assay on G12 astrocytoma cells (G12 shAxl9, 48 h, MTT), 6.70; in the assay on G12 astrocytoma cells (G12 shControl, 48 h, MTT), 4.32. The pIC50 in the assay on G12 astrocytoma cells (G12 shMer1, 48 h, MTT) is 6.11; in the assay with G12 astrocytoma cells (G12 shMer4, 48 h, MTT) it was 6.72; in assay [3] (A549 Wild Type), under 3.80; in assay [3] (A549 shAxl8-G5 (Axl knockdown)), 5.04; in assay [3] (A549 shControl), under 3.80; in assay [3] (A549 shMer1-G8 (Mer knockdown)), 4.03.

As a reminder, the pIC50 is the IC50 on a negative log10 scale, so that one unit is a factor of ten. Read a high pIC50 as a low IC50.
